Test results as given in a melting point compilation (Tetko et al.; mined from patent text by program, amines drawn as free bases though some values may be those of a salt).

Row | SMILES | melting point [°C]
1 | N#Cc1ccccc1-c1nc2ncccc2o1 | 166 to 167
2 | COc1cc2c(cc1OC)CN(CCCOc1ccc(NC(=O)c3cccc4c(=O)c5cccc(C)c5[nH]c34)c(C)c1)CC2 | 160
3 | CC(C)Oc1c(C2=CC(C)(C)Oc3ccc(C#N)cc32)c(=O)c1=O | 169 to 170
4 | CCOC(=O)NN=C(c1ccc(Cl)cc1)c1ccc(OP(=S)(OCC)OCC)cc1 | 106
5 | COC(=O)c1ccc(COC2CC(n3cc(F)c(=O)[nH]c3=O)OC2CO)cc1 (stereo unspecified) | 169 to 170
6 | O=[N+]([O-])c1cc2cc(Cl)ccc2nc1Cl | 190
7 | CC(CO)c1ccc2c(c1)Cc1ccccc1O2 (stereo unspecified) | 86 to 89
8 | O=C(O)c1ccc(CCn2ccn([C@H]3CCc4c(F)cc(F)cc4C3)c2=S)cc1 | 222 to 224
9 | OC(CCCN1CCCCC1)c1ccc2c(c1)Cc1cc(C(O)CCCN3CCCCC3)ccc1O2 (stereo unspecified) | 145 to 146
10 | O=C(O)COc1ccc(OCCC2CCN(c3ccncc3)CC2)cc1 | 247 to 249
11 | Cc1nc2c(cc1C(=O)NC(=N)N)CCCCC2Cl (stereo unspecified) | 153 to 156
12 | O=C(O)CCc1oc(=S)[nH]c1-c1ccc(Cl)cc1 | 196 to 197
13 | COC(=O)CNc1cccc(C#N)c1 | 91.5 to 92.5
14 | CC(C#N)Oc1cccc(C=Cc2ccc3ccc(Cl)cc3n2)c1 (stereo unspecified) | 118 to 120
15 | CC(C)Oc1ccn2nc(-c3ccccc3)c(-c3ccc(=O)n(C(C)C)n3)c2c1 | 162 to 163
16 | Cc1ccccc1C(CCC(=O)O)Oc1cc(OCc2ccsc2)ccc1-c1cc(C(=O)O)on1 (racemic) | 162 to 164

Row | SMILES | melting point [°C]
17 | Cn1ccc2c1CCN1C(=O)CCC21 (stereo unspecified) | 122 to 125
18 | O=C1CC(c2cccc(-n3cnnc3)c2)=Nc2ccc(-c3ccccc3F)cc2N1 | 198
19 | N#CCCNC(=O)c1cccc(-c2ccc3ccn(Cc4ccc(Cl)cc4Cl)c3c2)c1 | 153 to 154
20 | Cc1sc(C(=O)O)c2c1-c1nn(Cc3ccccc3)cc1CC2 | 231 to 232
21 | Cc1c(-c2ccc(O)cc2)n(Cc2ccc(/C=C/C(N)=O)cc2)c2ccc(O)cc12 | 161 to 163
22 | C[C@@H]1NC(=O)OC1(c1ccccc1)c1ccccc1 | 264 to 266
23 | N#CC1=C(c2ccccc2)Nc2n[nH]cc2C1c1cccc(C#N)c1Br (stereo unspecified) | > 270
24 | Cc1oc(-c2ccccc2)nc1COc1cccc2cc(NS(=O)(=O)C(F)(F)F)ccc12 | 192 to 194
25 | S=C(N1CCOCC1)C1(c2ccccn2)CCCS1 (stereo unspecified) | 139
26 | CCCOc1ccccc1-c1ccc2c(c1)C=C(C(=O)Nc1ccc(CN(C)C3CCOCC3)cc1)CCS2(=O)=O | 190 to 192
27 | CC(C)Cn1nc(-c2ccc(F)cc2F)cc(CN2C(=O)c3ccccc3C2=O)c1=O | 152 to 156
28 | OC(CCc1ccc2ccccc2c1)Cn1ccnc1 (stereo unspecified) | 122 to 124
29 | CC(C)[C@H](C[C@@H]1OC(C)(C)N(C(=O)OC(C)(C)C)[C@H]1CC1CCCCC1)C(=O)NCCNc1nc(N)n[nH]1 | 99 to 112
30 | Cc1nc(N2CCN(Cc3ccc(F)cc3)C2=O)sc1C(=O)NCc1ncccn1 | 205 to 207
31 | O=c1[nH]ccc2cc3cccnc3n12 | 265 to 266
32 | CN(C)CCc1nc(C(N)=O)c2n1-c1ccc(Cl)cc1C(c1ccccc1Cl)=NC2 | 249 to 251

Continued, values first:

Row | melting point [°C] | SMILES
33 | 130 to 131 | CC(C)Nc1cccnc1N(C)CCOC(=O)c1cc2ccccc2[nH]1
34 | 51 to 53 | C[C@@H]1O[C@@]1(Cn1cncn1)c1ccc(Cl)cc1
35 | 167 to 171 | COc1ccc(C(=O)Nc2ccc(C(=O)Cl)c3ccccc23)cc1OC
36 | 178 | Cc1cccc(NC(=O)NC(C(=O)N(CC(=O)OC(C)(C)C)c2ccccc2)c2ccccc2)c1 (racemic)
37 | 70 | CCCCCCCCCCS(=O)(=O)NC(=O)c1cnc(C(=O)NCC(=O)OCC)c(OC)c1
38 | 144 to 146 | Cc1[nH]c2ccccc2c1CCCN1CCC(c2noc3ccc(F)cc23)CC1
39 | 60 | COc1cccc(N(C(=O)c2ccc(Br)s2)C2CC2)c1
40 | 179 to 180 | NCC1CCc2[nH]c3ccc(F)c(Cl)c3c2C1 (stereo unspecified)
41 | 156 to 157 | O=C(O)c1ncsc1S
42 | 96 to 98 | COc1ccc(C2=CS(=O)CCC2)cc1OC1CCCC1 (stereo unspecified)
43 | 72 to 74 | COC(CNc1ccc(C(O)(C(F)(F)F)C(F)(F)F)cc1)OC
44 | 109 to 110 | COC(=O)c1cc(OC)c(OC)c(OC)c1-c1c(C(=O)OC)cc2c(c1OC)OCO2
45 | 72 to 74.5 | CONS(=O)(=O)c1cccc(Cl)c1
46 | 183 to 184 | Cc1ccc2cc(C3=NCCS3)[nH]c2c1NS(=O)(=O)c1cccs1
47 | 83 to 85 | Cc1ccc(C(O)(c2ccc(C)cc2)[C@H](C)OS(C)(=O)=O)cc1
48 | 75 to 77 | CC1CN(c2ccc(N3CC(CNc4nccs4)OC3=O)cc2F)CCC1=CC#N (stereo unspecified)
49 | 65 to 66 | COc1cccc(Cc2cnc(-c3ccccc3)c(-c3ccccc3)n2)c1
50 | 152 to 160 | Nc1cc(N2CCN(C(c3ccccc3)(c3ccccc3)c3ccccc3)CC2)nc(N)n1
51 | 99 to 100 | CC(C)(C)OC(=O)Cn1c(=O)n(Cc2ccccc2)c2ccccc21
52 | 198 to 200 | N#Cc1ccc2oc3c(c(=O)c2c1)CCCC3

Row | melting point [°C] | SMILES
53 | 174 to 175 | COC(=O)c1ccc(Cc2cccc3ccc(C(=O)NCC(C)C)cc23)c(OC)c1
54 | 207 to 209 | CN1CCC(C2(O)c3ccc(F)cc3Sc3ccc(F)cc32)CC1 (stereo unspecified)
55 | 145 to 147 | CON1C(C)(C)CC(OC(=O)N=NC(=O)OC2CC(C)(C)N(OC)C(C)(C)C2)CC1(C)C
56 | 257 | O=C(Nc1cccc(S(=O)(=O)NCc2cccnc2)c1)c1cnn2c(C(F)(F)F)cc(-c3ccc(C(F)(F)F)cc3)nc12
57 | 201 to 202 | Cn1nc(Cl)cc(Nc2ccccn2)c1=O
58 | 259 to 261 | Nc1cc(-n2cncn2)ccc1[N+](=O)[O-]
59 | 111 to 113 | O=C(OCC1CCC(COC(=O)c2ccccc2)CC1)c1ccccc1 (stereo unspecified)
60 | 106 to 107 | CCOC(=O)C=CC=Cc1ccc(F)c([N+](=O)[O-])c1
61 | 92 | CCN(CC)C(=O)c1cc2ccccc2c(-c2cccc(F)c2)n1
62 | 189 to 192 | c1ccc2c(NCCCCNc3nccc4ccccc34)nccc2c1
63 | 188 to 189 | CC(=O)Nc1c(-c2ccccc2)nn2ccccc12
64 | 78 | CCN(CC)C(=O)c1cc(-c2ccccc2)c2sccc2c1
65 | 174 to 176 | COc1cccc2c(=O)c(C=O)coc12
66 | 197 to 200 | O=C(O)c1ncn2c1CN(C(=O)N1CCCC1)c1ccccc1-2
67 | 201 to 202 | CCOC(=O)Cc1nnc(-c2cc3cccc(N(C)S(=O)(=O)c4cccs4)c3[nH]2)s1
68 | 99 to 101 | CC(C)c1cc(OCCCC(=O)OCc2ccccc2)cc2c1C(=O)N(COc1cc(C(F)(F)F)nn1-c1ccccc1)S2(=O)=O
69 | 154 | COc1nc2ccnn2c2ncccc12
70 | 185 to 189 | Fc1cc(Cc2ccnc3c2Cc2ccccc2O3)ccn1
71 | 186 to 188 | C#CCn1nnc2cc3c(cc2c1=O)OC1CCCN1C3=O (stereo unspecified)
